The text below walks through data of publication PMC4649711, “In1-ghrelin splicing variant is overexpressed in pituitary adenomas and increases their aggressive features” (Scientific Reports, 2015).

In test [1] the test system is PRL-omas (tumoral pituitary cells). Nature of the test: free cytosolic calcium kinetics ([Ca^2+]i), PRL-oma cells. The note with it: fura-2AM. Type of test: cell-based, human. On the procedure:
Pituitary adenoma specimens were dispersed into single cells by enzymatic and mechanical disruption and cultured onto tissue culture plates in serum containing medium, as previously described. Briefly, pituitary samples were resected by endoscopic transsphenoidal surgery and transferred to sterile cold (4°C) culture medium (S-MEM, Gibco, Madrid, Spain) supplemented with 0.1% BSA, 0.01% L-glutamine, 1% antibiotic-antimycotic solution, and 2.5% HEPES. Samples were minced under sterile conditions into 1–2 mm^3 pieces. […]
As previously reported, changes in [Ca^2+]i in single cells were measured using fura-2AM (50,000 cells/coverslip; Molecular Probes, Eugene, OR)[23][30]. […] Cells were examined for changes in [Ca^2+]i after the appropriate treatment (native ghrelin, In1-19 or In1-40) using a 40× objective with Immersion Oil Type NF (Nikon, Tokyo, Japan) while exposed to alternating 340–380 nm light beams, and the intensity of light emission at 505 nm was measured every 5 seconds using MetaFluor Software (Imaging Corp., West Chester, PA, USA). […] Changes in [Ca^2+]i in CHO-K1 cell line expressing recombinant GHSR1a or GHSR1b receptor were measured using Calcium 4 Explorer Kit (Molecular Devices, Sunnyvale, CA, USA). […] Fluorescent signals were then monitored using the FLIPR Tetra (Molecular Devices, Sunnyvale, CA, USA) during which cells were stimulated with compounds. […]

The next test concerns ACTH-omas. Nature of the test: cell viability of ACTH-oma primary cultures, peptide treatment. The test is classed as cell-based, human. The note with it: 100 nM, 24 h, alamar-blue, n = 2–8. Here is the method: (§1) Pituitary adenoma specimens were dispersed into single cells by enzymatic and mechanical disruption and cultured onto tissue culture plates in serum containing medium, as previously described. Briefly, pituitary samples were resected by endoscopic transsphenoidal surgery and transferred to sterile cold (4°C) culture medium (S-MEM, Gibco, Madrid, Spain) supplemented with 0.1% BSA, 0.01% L-glutamine, 1% antibiotic-antimycotic solution, and 2.5% HEPES. Samples were minced under sterile conditions into 1–2 mm^3 pieces. Some pieces were stored at −80°C for posterior RNA isolation and, when possible, the remaining tissue samples were washed and incubated in 30 mL S-MEM medium supplemented 0.3% trypsin (Beckson, Dickinson and Company, Sparks, MD, USA) in a spinner flask (Bellco Glass, Vineland, NJ, USA) for 2 h of gentle shaking at 37°C and then, incubation was continued for another 5 min in presence of 1 mg of DNAse I (Roche, Mannheim, Germany). Dispersed cells were decanted by centrifugation and then, by repeated aspiration into a smoothtipped glass Pasteur pipette. […]
(§2) As previously reported, cell viability was estimated using alamar-blue reagent (10,000 cells/well-plate; Biosource International, Camarillo, CA, USA)[30][50][52]. […] Reduction of alamar-blue reagent was quantified exciting at 560 nm and reading at 590 nm using the FlexStation III system (Molecular Devices, Sunnyvale, CA, USA). […]

In test [2] the test system is PRL-omas. Nature of the test: cell viability of PRL-oma primary cultures, peptide treatment. The note with it: 100 nM, time not specified in text (24-, 48- and/or 72-h), alamar-blue, n = 2–3. Type of test: cell-based, human. On the procedure: as §1, §2
In another test the test system is GH-omas. Nature of the test: apoptotic rate in GH-omas. The test is classed as cell-based, human. The conditions noted are these: 100 nM, 12–14 h, Annexin V/Propidium Iodide, flow cytometry, n = 3. On the procedure:
as §1, with “pipette. Cells suspensions were washed once in 4.5 g/L glucose containing DMEM medium (Gibco, Madrid, Spain) supplemented with 0.1% BSA, 0.01% L-glutamine, 1% antibiotic-antimycotic solution, and 2.5% HEPES.” for “pipette.”

The test system of test [3] is PRL-omas. The note with it: previous studies; cited from earlier work. An excerpt: Conversely, In1-ghrelin peptides only elicited [Ca^2+]i responses in a negligible percentage of PRL-oma cells, which is in accordance with the lack of effect of these peptides in the modulation of PRL release. However, In1-40 but not In1-19 p ...
Test [4] relates to GHSR-lacking cells (e.g. prostate cell lines). The conditions noted are these: cited from earlier work.
Test [5] relates to other endocrine cell types (e.g. pancreatic cells). Also on record: method as in PMID 17068144. The conditions noted are these: cited from earlier work.

SMILES strings stand for the structures.

Regarding `CCCCCCCC(=O)OC[C@H](NC(=O)[C@H](CO)NC(=O)CN)C(=O)N[C@@H](Cc1ccccc1)C(=O)N[C@@H](CC(C)C)C(=O)N[C@@H](CO)C(=O)N1CCC[C@H]1C(=O)N[C@@H](CCC(=O)O)C(=O)N[C@@H](Cc1c[nH]cn1)C(=O)N[C@@H](CCC(N)=O)C(=O)N[C@@H](CCCNC(=N)N)C(=O)N[C@H](C(=O)N[C@@H](CCC(N)=O)C(=O)N[C@@H](CCC(N)=O)C(=O)N[C@@H](CCCNC(=N)N)C(=O)N[C@@H](CCCCN)C(=O)N[C@@H](CCC(=O)O)C(=O)N[C@@H](CO)C(=O)N[C@@H](CCCCN)C(=O)N[C@@H](CCCCN)C(=O)N1CCC[C@H]1C(=O)N1CCC[C@H]1C(=O)N[C@@H](C)C(=O)N[C@@H](CCCCN)C(=O)N[C@@H](CC(C)C)C(=O)N[C@@H](CCC(N)=O)C(=O)N1CCC[C@H]1C(=O)N[C@@H](CCCNC(=N)N)C(=O)O)C(C)C` [AG], the “[Ca^2+]i response (in words)” value in test [1] is “only a low proportion of these pituitary adenoma cells altered their [Ca^2+]i”. The “# samples” value in test [1] (responsive/tested samples, 217 / 160 / 88 cells analyzed for AG / In1-19 / In1-40, peptides 100 nM (abstract)) was 2/6. Moreover, the values for the cell viability entry with ACTH-omas and with PRL-omas [2] were “increased cell viability” and “significant increases”, respectively. For the same molecule, the results for the apoptotic rate result (in the test on GH-omas; in test [5]) were “did not alter apoptotic rate” and “did not affect the apoptotic rate”, respectively. Further, the PRL secretion entry in the test on PRL-omas [3] is “increases PRL secretion”. Also, the “responses in GHSR-lacking cells” value in test [4] is listed as “have been found in GHSR-lacking cells”.
